Experiment [1] addresses T1, human CGT (ceramide galactosyltransferase), CHO/CGT lysate (Homo sapiens, UniProt Q16880).
T1 construct: Full-length human CGT cDNA was cloned into the BamH1/Xho1 site of pcDNA3.1 (+); expressed in transfected cells; host or cells: Chinese hamster ovary (CHO) cells; lysate prepared with M-PER
T1 sequence (Q16880 21-541): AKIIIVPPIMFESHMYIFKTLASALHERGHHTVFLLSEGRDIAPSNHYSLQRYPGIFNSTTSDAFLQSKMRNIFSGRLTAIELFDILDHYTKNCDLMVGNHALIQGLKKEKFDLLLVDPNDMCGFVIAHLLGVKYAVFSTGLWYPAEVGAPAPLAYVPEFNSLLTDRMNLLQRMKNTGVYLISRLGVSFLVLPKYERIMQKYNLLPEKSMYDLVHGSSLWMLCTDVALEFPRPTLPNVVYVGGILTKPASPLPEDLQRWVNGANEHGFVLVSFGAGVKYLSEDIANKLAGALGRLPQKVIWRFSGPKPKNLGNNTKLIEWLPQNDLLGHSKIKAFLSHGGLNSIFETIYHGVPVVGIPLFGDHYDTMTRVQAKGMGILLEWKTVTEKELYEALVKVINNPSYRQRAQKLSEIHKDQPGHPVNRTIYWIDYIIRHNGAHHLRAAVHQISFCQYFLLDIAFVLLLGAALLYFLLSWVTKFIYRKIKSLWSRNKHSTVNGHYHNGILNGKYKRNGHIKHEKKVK
Put plainly: CGT enzyme assay, RapidFire/MS/MS readout (Table 1 ranges with one asterisk *). In kind it is biochemical. As to conditions: RapidFire method (range with one asterisk *). Summed up:
(§1)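 Lysate (4 μg) of CHO cells transfected with full-length human CGT incubated 1 h at 37 °C with compound (0.001–50 μM) in pH 7.2 HEPES buffer with 10 μM C6-NBD-dihydro-ceramide, 17.5 μM UDP-galactose, Mg2+/Mn2+, CHAPS, BSA, 0.5% DMSO; ** set also contained 0.01% Tween 80. Product quantified by RapidFire/MS/MS, normalized to internal standard; IC50 from sigmoidal variable-slope fits.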

In experiment [2] the target is T1, human CGT (ceramide galactosyltransferase), CHO/CGT lysate. Briefly: CGT enzyme assay, RapidFire/MS/MS readout with 0.01% Tween added (Table 1 ranges with two asterisks **). In kind it is biochemical. Summed up:
as §1

Setting [3] is: CGT enzyme assay, RapidFire/MS/MS method with 0.01% Tween added (range with two asterisks **).
[4] abbreviates: CGT enzymatic assay, range with two asterisks (**): RapidFire/MS/MS method with 0.01% Tween added.

Structures can show the parent of a compound that is named as a salt.

In the case of `NC1CC2CCC(C1)N2C(=O)[C@@H](NS(=O)(=O)c1ccc2cc(OC3CCCC3)ccc2c1)C(F)(F)c1ccc(-c2ccc(Cl)cc2)cc1` (stereo partly drawn) [Compound 48-1, N-((2R)-3-(3-amino-8-azabicyclo[3.2.1]octan-8-yl)-1-(4′-chloro-[1,1′-biphenyl]-4-yl)-1,1-difluoro-3-oxopropan-2-yl)-6-(cyclopentyloxy)naphthalene-2-sulfonamide trifluoroacetate], the half-maximal inhibitory concentration (IC50) in experiment [1] and in experiment [2] (setting [3]) was under 1 µM in each case.

As to `NC1CC2CCC(C1)N2C(=O)[C@H](NS(=O)(=O)c1ccc2cc(OC3CCCC3)ccc2c1)C(F)(F)c1ccc(-c2ccc(Cl)cc2)cc1` (stereo partly drawn) [Compound 48-2, N-((2S)-3-(3-amino-8-azabicyclo[3.2.1]octan-8-yl)-1-(4′-chloro-[1,1′-biphenyl]-4-yl)-1,1-difluoro-3-oxopropan-2-yl)-6-(cyclopentyloxy)naphthalene-2-sulfonamide trifluoroacetate], the half-inhibitory concentration (IC50) in experiment [1] and in experiment [2] (setting [3]) was 1 to 10 µM in each case.

Turning to `NC1CCN(C(=O)[C@@H](NS(=O)(=O)c2ccc3cc(OC4CCCC4)ccc3c2)C(F)(F)c2ccc(-c3ccc(Cl)cc3)cc2)CC1` [Compound 91-1, (R)—N-(3-(4-aminopiperidin-1-yl)-1-(4′-chloro-[1,1′-biphenyl]-4-yl)-1,1-difluoro-3-oxopropan-2-yl)-6-(cyclopentyloxy)naphthalene-2-sulfonamide trifluoroacetate], the IC50 in experiment [1] and in experiment [2] (setting [3]) was under 1 µM in each case.

Regarding `NC1CCN(C(=O)[C@H](NS(=O)(=O)c2ccc3cc(OC4CCCC4)ccc3c2)C(F)(F)c2ccc(-c3ccc(Cl)cc3)cc2)CC1` [Compound 91-2, (S)—N-(3-(4-aminopiperidin-1-yl)-1-(4′-chloro-[1,1′-biphenyl]-4-yl)-1,1-difluoro-3-oxopropan-2-yl)-6-(cyclopentyloxy)naphthalene-2-sulfonamide trifluoroacetate], the IC50 in experiment [1] and in experiment [2] (setting [3]) was 1 to 10 µM throughout.

As for `NC1CCN(C(=O)[C@@H](NS(=O)(=O)c2ccc(OCC3CCCCC3)cc2)C(F)(F)c2ccc(-c3ccc(Cl)cc3)cc2)CC1` [Compound 96-1, (R)—N-(3-(4-aminopiperidin-1-yl)-1-(4′-chloro-[1,1′-biphenyl]-4-yl)-1,1-difluoro-3-oxopropan-2-yl)-4-(cyclohexylmethoxy)benzenesulfonamide trifluoroacetate], the IC50 in experiment [1] and in experiment [2] (setting [3]) was 1 to 10 µM each time.

Take `NC1CCN(C(=O)[C@H](NS(=O)(=O)c2ccc(OCC3CCCCC3)cc2)C(F)(F)c2ccc(-c3ccc(Cl)cc3)cc2)CC1` [Compound 96-2, (S)—N-(3-(4-aminopiperidin-1-yl)-1-(4′-chloro-[1,1′-biphenyl]-4-yl)-1,1-difluoro-3-oxopropan-2-yl)-4-(cyclohexylmethoxy) benzenesulfonamide trifluoroacetate]: the half-inhibitory concentration (IC50) in experiment [1] and in experiment [2] (setting [3]) was 30 to 100 µM throughout.

On to `NC1CC2CCC(C1)N2C(=O)[C@@H](NC(=O)[C@@H](O)c1ccc2cc(OC3CCCC3)ccc2c1)C(F)(F)c1ccc(-c2ccc(Cl)cc2)cc1` (stereo partly drawn) [Compound 136-3, (2S)—N-((2R)-3-(3-amino-8-azabicyclo[3.2.1]octan-8-yl)-1-(4′-chloro-[1,1′-biphenyl]-4-yl)-1,1-difluoro-3-oxopropan-2-yl)-2-(6-(cyclopentyloxy)naphthalen-2-yl)-2-hydroxyacetamide trifluoroacetate], for which the IC50 in experiment [1] and in experiment [2] (setting [3]) was 1 to 10 µM each time.

With `O=C([C@H](NS(=O)(=O)c1ccc(OCC2CCCCC2)cc1)C(F)(F)c1ccc(-c2ccc(Cl)cc2)cc1)N1CC[C@H]2CNC[C@H]21` [Compound 195-4, N-((S)-1-(4′-chloro-[1,1′-biphenyl]-4-yl)-1,1-difluoro-3-((3aS,6aS)-hexahydropyrrolo[3,4-b]pyrrol-1(2H)-yl)-3-oxopropan-2-yl)-4-(cyclohexylmethoxy)benzenesulfonamide], the IC50 – broadly, the concentration that inhibits the measured activity by half – in experiment [2] (setting [4]) is 30 to 100 µM.

Compound `NC1CCN(C(=O)[C@@H](NS(=O)(=O)c2ccc(OCC3CCCCC3)cc2)C(F)(F)c2ccc(C3(C(F)(F)F)CC3)cc2)CC1` [Compound 196-1, (R)-N-(3-(4-aminopiperidin-1-yl)-1,1-difluoro-3-oxo-1-(4-(1-(trifluoromethyl)cyclopropyl)phenyl)propan-2-yl)-4-(cyclohexylmethoxy)benzenesulfonamide] registered an IC50 in experiment [2] (setting [4]) of 1 to 10 µM.

As to `NC1CCN(C(=O)[C@H](NS(=O)(=O)c2ccc(OCC3CCCCC3)cc2)C(F)(F)c2ccc(C3(C(F)(F)F)CC3)cc2)CC1` [Compound 196-2, (S)-N-(3-(4-aminopiperidin-1-yl)-1,1-difluoro-3-oxo-1-(4-(1-(trifluoromethyl)cyclopropyl)phenyl)propan-2-yl)-4-(cyclohexylmethoxy)benzenesulfonamide], the IC50 in experiment [2] (setting [4]) was in the range of 10 to 30 µM.

The compound `COc1cc(C(F)(F)[C@H](NS(=O)(=O)c2ccc3cc(OC4CCCC4)ccc3c2)C(=O)N2C[C@H]3CNC[C@H]3C2)ccc1-c1ccc(Cl)cc1` [Compound 197-1, N-((R)-1-(4′-chloro-2-methoxy-[1,1′-biphenyl]-4-yl)-1,1-difluoro-3-((3aR,6aS)-hexahydropyrrolo[3,4-c]pyrrol-2(1H)-yl)-3-oxopropan-2-yl)-6-(cyclopentyloxy)naphthalene-2-sulfonamide] displayed an IC50 in experiment [2] (setting [4]) of under 1 µM.

Turning to `COc1cc(C(F)(F)[C@@H](NS(=O)(=O)c2ccc3cc(OC4CCCC4)ccc3c2)C(=O)N2C[C@H]3CNC[C@H]3C2)ccc1-c1ccc(Cl)cc1` [Compound 197-2, N-((S)-1-(4′-chloro-2-methoxy-[1,1′-biphenyl]-4-yl)-1,1-difluoro-3-((3aR,6aS)-hexahydropyrrolo[3,4-c]pyrrol-2(1H)-yl)-3-oxopropan-2-yl)-6-(cyclopentyloxy)naphthalene-2-sulfonamide], the IC50 in experiment [2] (setting [4]) is 10 to 30 µM.

Compound `NC1CCN(C(=O)[C@@H](NS(=O)(=O)c2ccc(OCC3CCCCC3)cc2)C(F)(F)c2ccc3c(c2)oc2cc(Cl)ccc23)CC1` [Compound 198-1, (R)-N-(3-(4-aminopiperidin-1-yl)-1-(7-chlorodibenzo[b,d]furan-3-yl)-1,1-difluoro-3-oxopropan-2-yl)-4-(cyclohexylmethoxy)benzenesulfonamide] registered an IC50 in experiment [2] (setting [4]) of 1 to 10 µM.

In experiment [2] (setting [4]), `NC1CCN(C(=O)[C@H](NS(=O)(=O)c2ccc(OCC3CCCCC3)cc2)C(F)(F)c2ccc3c(c2)oc2cc(Cl)ccc23)CC1` [Compound 198-2, (S)-N-(3-(4-aminopiperidin-1-yl)-1-(7-chlorodibenzo[b,d]furan-3-yl)-1,1-difluoro-3-oxopropan-2-yl)-4-(cyclohexylmethoxy)benzenesulfonamide] yielded an IC50 of 30 to 100 µM.

Values taken from patent US20190322676A1, “CERAMIDE GALACTOSYLTRANSFERASE INHIBITORS FOR THE TREATMENT OF DISEASE” (BioMarin Pharmaceutical Inc., priority 2016, published 2019).
